In PubChem BioAssay (NCI):
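Protocol summary: plate cells (96-well), add compound at 5 concentrations, incubate 48 h, interpolate endpoints linearly. TGI: concentration producing complete growth inhibition.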

Key:
Assay in all cases: NCI anticancer screen, dose series, 48 h
MCF7 breast = tested on: MCF7 breast
KM12 colon = tested on: KM12 colon
DU-145 prostate = tested on: DU-145 prostate
NCI/ADR-RES ovarian = tested on: NCI/ADR-RES ovarian
SK-MEL-5 melanoma = tested on: SK-MEL-5 melanoma
UO-31 renal = tested on: UO-31 renal
HS 578T breast = tested on: HS 578T breast
M14 melanoma = tested on: M14 melanoma
786-0 renal = tested on: 786-0 renal
MOLT-4 leukemia = tested on: MOLT-4 leukemia
HCT-116 colon = tested on: HCT-116 colon
SNB-75 CNS = tested on: SNB-75 CNS
TK-10 renal = tested on: TK-10 renal
EKVX NSCLC = tested on: EKVX NSCLC
SR leukemia = tested on: SR leukemia
HL-60(TB) leukemia = tested on: HL-60(TB) leukemia
NCI-H522 lung = tested on: NCI-H522 lung
A498 renal = tested on: A498 renal
MDA-MB-435 = tested on: MDA-MB-435
A549 NSCLC = tested on: A549 NSCLC
OVCAR-3 ovarian = tested on: OVCAR-3 ovarian
UACC-62 melanoma = tested on: UACC-62 melanoma
MDA-N = tested on: MDA-N
K-562 leukemia = tested on: K-562 leukemia
MDA-MB-231 breast = tested on: MDA-MB-231 breast
RXF 393 renal = tested on: RXF 393 renal
ACHN renal = tested on: ACHN renal
IGROV1 ovarian = tested on: IGROV1 ovarian
HCT-15 colon = tested on: HCT-15 colon
SF-268 CNS = tested on: SF-268 CNS
SN12C renal = tested on: SN12C renal
PC-3 prostate = tested on: PC-3 prostate
SF-539 CNS = tested on: SF-539 CNS
SK-MEL-2 melanoma = tested on: SK-MEL-2 melanoma
T-47D breast = tested on: T-47D breast
MALME-3M melanoma = tested on: MALME-3M melanoma
LOX IMVI melanoma = tested on: LOX IMVI melanoma
NCI-H226 lung = tested on: NCI-H226 lung
SK-MEL-28 melanoma = tested on: SK-MEL-28 melanoma
BT-549 breast = tested on: BT-549 breast
SF-295 CNS = tested on: SF-295 CNS
HOP-62 NSCLC = tested on: HOP-62 NSCLC
OVCAR-4 ovarian = tested on: OVCAR-4 ovarian
CAKI-1 renal = tested on: CAKI-1 renal
U251 CNS = tested on: U251 CNS
HOP-92 NSCLC = tested on: HOP-92 NSCLC
SW-620 colon = tested on: SW-620 colon
COLO 205 colon = tested on: COLO 205 colon
OVCAR-8 ovarian = tested on: OVCAR-8 ovarian
SK-OV-3 ovarian = tested on: SK-OV-3 ovarian
HT29 colon = tested on: HT29 colon
SNB-19 CNS = tested on: SNB-19 CNS
OVCAR-5 ovarian = tested on: OVCAR-5 ovarian
UACC-257 melanoma = tested on: UACC-257 melanoma
HCC-2998 colon = tested on: HCC-2998 colon
NCI-H460 lung = tested on: NCI-H460 lung
CCRF-CEM leukemia = tested on: CCRF-CEM leukemia
NCI-H23 lung = tested on: NCI-H23 lung
RPMI-8226 leukemia = tested on: RPMI-8226 leukemia

Compound: O=C(CCC=C(S(=O)(=O)c1ccccc1)S(=O)(=O)c1ccccc1)c1ccccc1
- TGI (MCF7 breast): 17.1 µM
- TGI (KM12 colon): > 100 µM
- TGI (DU-145 prostate): 25.4 µM
- TGI (NCI/ADR-RES ovarian): 25.8 µM
- TGI (SK-MEL-5 melanoma): 19.8 µM
- TGI (UO-31 renal): 18.3 µM
- TGI (HS 578T breast): 31 µM
- TGI (M14 melanoma): 20.9 µM
- TGI (786-0 renal): 11.8 µM
- TGI (MOLT-4 leukemia): > 100 µM
- TGI (HCT-116 colon): 13.9 µM
- TGI (SNB-75 CNS): 9.57 µM
- TGI (TK-10 renal): 19.3 µM
- TGI (EKVX NSCLC): 30.5 µM
- TGI (SR leukemia): 82.6 µM
- TGI (HL-60(TB) leukemia): 5.2 µM
- TGI (NCI-H522 lung): 9.45 µM
- TGI (A498 renal): 31.7 µM
- TGI (MDA-MB-435): 24.3 µM
- TGI (A549 NSCLC): 49.6 µM
- TGI (OVCAR-3 ovarian): 17.4 µM
- TGI (UACC-62 melanoma): 19.7 µM
- TGI (MDA-N): 14.8 µM
- TGI (K-562 leukemia): 80.4 µM
- TGI (MDA-MB-231 breast): 22.9 µM
- TGI (RXF 393 renal): 20 µM
- TGI (ACHN renal): 20 µM
- TGI (IGROV1 ovarian): 31 µM
- TGI (HCT-15 colon): 20.8 µM
- TGI (SF-268 CNS): 18.8 µM
- TGI (SN12C renal): 13.1 µM
- TGI (PC-3 prostate): 14.2 µM
- TGI (SF-539 CNS): 6.57 µM
- TGI (SK-MEL-2 melanoma): 9.7 µM
- TGI (T-47D breast): 44.4 µM
- TGI (MALME-3M melanoma): 17.9 µM
- TGI (LOX IMVI melanoma): 10.3 µM
- TGI (NCI-H226 lung): 37.3 µM
- TGI (SK-MEL-28 melanoma): 34.6 µM
- TGI (BT-549 breast): 18.2 µM
- TGI (SF-295 CNS): 60.9 µM
- TGI (HOP-62 NSCLC): 40.3 µM
- TGI (OVCAR-4 ovarian): 63.6 µM
- TGI (CAKI-1 renal): 31.1 µM
- TGI (U251 CNS): 15.6 µM
- TGI (HOP-92 NSCLC): 30.6 µM
- TGI (SW-620 colon): 15 µM
- TGI (COLO 205 colon): 19.8 µM
- TGI (OVCAR-8 ovarian): 16.7 µM
- TGI (SK-OV-3 ovarian): > 100 µM
- TGI (HT29 colon): 17.5 µM
- TGI (SNB-19 CNS): 28.4 µM
- TGI (OVCAR-5 ovarian): 24 µM
- TGI (UACC-257 melanoma): 23.3 µM
- TGI (HCC-2998 colon): 21.7 µM
- TGI (NCI-H460 lung): 33.8 µM

Compound: Nc1nc(Cl)cc(NC2(CO)CCC2)n1
- TGI (MCF7 breast): > 100 µM
- TGI (KM12 colon): > 100 µM
- TGI (DU-145 prostate): > 100 µM
- TGI (NCI/ADR-RES ovarian): > 100 µM
- TGI (SK-MEL-5 melanoma): > 100 µM
- TGI (UO-31 renal): > 100 µM
- TGI (CCRF-CEM leukemia): > 100 µM
- TGI (HS 578T breast): > 100 µM
- TGI (786-0 renal): > 100 µM
- TGI (NCI-H23 lung): > 100 µM
- TGI (MOLT-4 leukemia): > 100 µM
- TGI (HCT-116 colon): > 100 µM
- TGI (SNB-75 CNS): > 100 µM
- TGI (TK-10 renal): > 100 µM
- TGI (EKVX NSCLC): > 100 µM
- TGI (SR leukemia): > 100 µM
- TGI (HL-60(TB) leukemia): > 100 µM
- TGI (NCI-H522 lung): > 100 µM
- TGI (A498 renal): > 100 µM
- TGI (MDA-MB-435): > 100 µM
- TGI (A549 NSCLC): > 100 µM
- TGI (OVCAR-3 ovarian): > 100 µM
- TGI (RPMI-8226 leukemia): > 100 µM
- TGI (UACC-62 melanoma): > 100 µM
- TGI (MDA-N): > 100 µM
- TGI (K-562 leukemia): > 100 µM
- TGI (MDA-MB-231 breast): > 100 µM
- TGI (RXF 393 renal): > 100 µM
- TGI (ACHN renal): > 100 µM
- TGI (IGROV1 ovarian): > 100 µM
- TGI (HCT-15 colon): > 100 µM
- TGI (SF-268 CNS): > 100 µM
- TGI (SN12C renal): > 100 µM
- TGI (PC-3 prostate): > 100 µM
- TGI (SF-539 CNS): > 100 µM
- TGI (SK-MEL-2 melanoma): > 100 µM
- TGI (T-47D breast): > 100 µM
- TGI (MALME-3M melanoma): > 100 µM
- TGI (LOX IMVI melanoma): > 100 µM
- TGI (NCI-H226 lung): > 100 µM
- TGI (SK-MEL-28 melanoma): > 100 µM
- TGI (BT-549 breast): > 100 µM
- TGI (SF-295 CNS): > 100 µM
- TGI (HOP-62 NSCLC): > 100 µM
- TGI (OVCAR-4 ovarian): > 100 µM
- TGI (CAKI-1 renal): > 100 µM
- TGI (U251 CNS): > 100 µM
- TGI (HOP-92 NSCLC): > 100 µM
- TGI (SW-620 colon): > 100 µM
- TGI (COLO 205 colon): > 100 µM
- TGI (OVCAR-8 ovarian): > 100 µM
- TGI (HT29 colon): > 100 µM
- TGI (OVCAR-5 ovarian): > 100 µM
- TGI (UACC-257 melanoma): > 100 µM
- TGI (HCC-2998 colon): > 100 µM
- TGI (NCI-H460 lung): > 100 µM
